Activity calls are given as the source filed them.
Assays:
[1] = viability of PTEN-deleted HCT116 cells – cell-based, HCT116 PTEN knockout, dose response (AID 1047); assay type: functional;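 note: HCT116 colon tumor cells with PTEN knocked out; cells exposed to compound for 60 hours before readout; potency for loss of cell viability measured by luminescence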
[2] = viability of HCT116 lacking mutant beta-catenin – cell-based, human colon tumor, dose response (AID 1045); assay type: functional;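 note: HCT116 colon tumor cells with beta catenin knocked out; cells exposed to compound for 60 hours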
Cytochrome P450 2C19 = Cytochrome P450 2C19 (Homo sapiens, UniProt P33261); assay: Cytochrome panel assay with activity outcomes. Panel member name: p450-cyp2c19 Compounds with AC50 equal or less than 10 uM are considered active; assay type: functional; details: read-out: AC50
Sequence of Cytochrome P450 2C19 (P33261 whole entry): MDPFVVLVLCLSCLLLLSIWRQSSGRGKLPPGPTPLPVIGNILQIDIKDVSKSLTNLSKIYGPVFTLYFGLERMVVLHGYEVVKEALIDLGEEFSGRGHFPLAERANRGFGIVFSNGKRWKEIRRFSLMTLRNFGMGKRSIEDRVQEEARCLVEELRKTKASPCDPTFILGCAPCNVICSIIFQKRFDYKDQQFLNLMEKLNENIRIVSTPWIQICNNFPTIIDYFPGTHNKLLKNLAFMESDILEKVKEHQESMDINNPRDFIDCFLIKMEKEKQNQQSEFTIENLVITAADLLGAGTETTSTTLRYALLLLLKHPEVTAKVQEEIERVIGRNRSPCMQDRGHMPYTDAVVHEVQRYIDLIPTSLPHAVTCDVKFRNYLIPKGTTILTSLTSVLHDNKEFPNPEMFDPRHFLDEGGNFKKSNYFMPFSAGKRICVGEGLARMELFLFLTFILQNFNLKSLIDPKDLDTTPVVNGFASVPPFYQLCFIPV

Cytochrome P450 3A4 = Cytochrome P450 3A4 (Homo sapiens, UniProt P08684);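 note: CYP3A4 tested as one member of a cytochrome P450 panel screen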
Sequence of Cytochrome P450 3A4 (P08684 whole entry): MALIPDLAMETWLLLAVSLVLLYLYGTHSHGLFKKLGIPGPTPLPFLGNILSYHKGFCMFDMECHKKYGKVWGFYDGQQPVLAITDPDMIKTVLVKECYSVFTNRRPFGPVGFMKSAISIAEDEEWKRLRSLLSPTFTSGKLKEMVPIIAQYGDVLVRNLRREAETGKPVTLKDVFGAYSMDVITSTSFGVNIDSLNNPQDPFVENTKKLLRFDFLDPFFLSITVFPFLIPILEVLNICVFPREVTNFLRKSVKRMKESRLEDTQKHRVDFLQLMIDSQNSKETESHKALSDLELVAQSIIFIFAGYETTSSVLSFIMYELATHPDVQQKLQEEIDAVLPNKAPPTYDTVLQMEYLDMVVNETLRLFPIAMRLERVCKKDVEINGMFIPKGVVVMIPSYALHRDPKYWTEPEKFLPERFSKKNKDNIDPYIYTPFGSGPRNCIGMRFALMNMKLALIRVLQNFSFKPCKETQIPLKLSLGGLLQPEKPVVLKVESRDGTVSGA

[3] = Luminescence Cell-Based Dose Retest to Confirm Inhibitors of Cancer Stem Cells. [Related pubchem assays (depositor defined):AID2717, AID2721]; assay type: functional; details: Homo sapiens
Cytochrome P450 2C9 = Cytochrome P450 2C9 (Homo sapiens, UniProt P11712)
Sequence of Cytochrome P450 2C9 (P11712 whole entry): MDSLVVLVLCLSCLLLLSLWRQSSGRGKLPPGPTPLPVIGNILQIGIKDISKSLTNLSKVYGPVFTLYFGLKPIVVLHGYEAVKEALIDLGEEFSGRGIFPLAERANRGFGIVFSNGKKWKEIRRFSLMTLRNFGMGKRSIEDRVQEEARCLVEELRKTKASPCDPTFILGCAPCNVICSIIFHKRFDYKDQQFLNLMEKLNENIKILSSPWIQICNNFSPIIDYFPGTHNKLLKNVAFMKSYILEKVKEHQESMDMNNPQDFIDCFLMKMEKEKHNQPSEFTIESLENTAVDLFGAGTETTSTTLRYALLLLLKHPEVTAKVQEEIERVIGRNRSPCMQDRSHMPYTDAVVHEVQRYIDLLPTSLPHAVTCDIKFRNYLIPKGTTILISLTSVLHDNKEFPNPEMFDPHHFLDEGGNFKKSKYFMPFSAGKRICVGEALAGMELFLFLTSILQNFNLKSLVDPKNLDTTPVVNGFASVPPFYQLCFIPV

[4] = target: T1, Corticotropin-releasing factor receptor 2/Corticotropin-releasing factor-binding protein (Homo sapiens, UniProt P24387+Q13324); assay: activators of CRF receptor 2 with binding protein – uHTS hits, confirmation (AID 602473); assay type: functional; details: read-out: EC50_Mean
T1 sequence (Q13324 whole entry): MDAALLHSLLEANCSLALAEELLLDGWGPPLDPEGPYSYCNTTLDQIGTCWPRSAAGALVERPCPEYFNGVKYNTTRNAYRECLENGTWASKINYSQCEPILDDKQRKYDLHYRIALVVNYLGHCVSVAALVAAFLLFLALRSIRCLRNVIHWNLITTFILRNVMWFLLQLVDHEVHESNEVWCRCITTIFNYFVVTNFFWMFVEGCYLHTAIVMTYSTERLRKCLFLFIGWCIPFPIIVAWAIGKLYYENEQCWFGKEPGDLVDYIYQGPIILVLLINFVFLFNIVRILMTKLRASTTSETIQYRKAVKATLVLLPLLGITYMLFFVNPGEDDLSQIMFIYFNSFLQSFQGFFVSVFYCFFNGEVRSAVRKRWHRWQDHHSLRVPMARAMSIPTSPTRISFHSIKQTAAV
T1 sequence (P24387 whole entry): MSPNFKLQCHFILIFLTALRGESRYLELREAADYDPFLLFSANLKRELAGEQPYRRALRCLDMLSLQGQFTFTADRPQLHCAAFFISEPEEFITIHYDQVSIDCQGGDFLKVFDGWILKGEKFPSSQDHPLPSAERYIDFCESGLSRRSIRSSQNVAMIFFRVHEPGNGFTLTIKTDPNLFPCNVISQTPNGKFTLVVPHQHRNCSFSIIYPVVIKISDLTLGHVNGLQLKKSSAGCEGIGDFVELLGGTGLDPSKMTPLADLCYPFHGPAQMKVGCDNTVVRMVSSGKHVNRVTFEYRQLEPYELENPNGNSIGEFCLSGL

Cytochrome P450 1A2 = target: T2, Cytochrome P450 1A2 (Homo sapiens, UniProt P05177);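 note: PubChem cytochrome P450 panel assay, CYP1A2 panel member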
T2 sequence (P05177 whole entry): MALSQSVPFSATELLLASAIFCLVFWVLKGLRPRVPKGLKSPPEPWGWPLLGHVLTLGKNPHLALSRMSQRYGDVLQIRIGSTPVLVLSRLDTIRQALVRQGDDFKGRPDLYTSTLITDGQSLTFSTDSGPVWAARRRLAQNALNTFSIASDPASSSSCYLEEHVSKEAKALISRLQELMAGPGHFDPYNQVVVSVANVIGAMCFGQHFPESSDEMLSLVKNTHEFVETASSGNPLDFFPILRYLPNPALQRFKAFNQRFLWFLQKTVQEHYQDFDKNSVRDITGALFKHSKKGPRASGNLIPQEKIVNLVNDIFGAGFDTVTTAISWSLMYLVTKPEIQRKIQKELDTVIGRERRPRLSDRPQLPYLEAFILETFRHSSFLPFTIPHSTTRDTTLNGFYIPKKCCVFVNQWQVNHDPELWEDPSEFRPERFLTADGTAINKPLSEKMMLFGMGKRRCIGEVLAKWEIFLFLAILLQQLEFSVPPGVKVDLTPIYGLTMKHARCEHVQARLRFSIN

[5] = Trypanosoma cruzi growth suppression in host cells – NIH3T3 host cells, beta-gal luminescence, confirmation (AID 2044); assay type: functional, cell-based;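 note: intracellular parasites grown in NIH/3T3 mouse fibroblasts as host cells; luminescent beta-galactosidase reporter signal from transgenic T. cruzi replicating inside host cells; inhibitors lower the luminescence signal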
[6] = NIH3T3 cell viability loss – ATP luminescence, mouse fibroblasts, counter-screen, dose response (AID 2010); assay type: functional, cell-based;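 note: cells exposed to compound for about 90 hours before reading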
[7] = test system: Streptococcus sp. 'group A'; assay: Streptococcus pyogenes SK(-)GAS viability under kanamycin – luminescence, BacTiterGlo, confirmation, counter-screen for streptokinase expression inhibitor project, dose response (AID 1900); assay type: functional, organism-based
Streptococcus = assay: GAS UMAA2166 growth inhibition – luminescence, BacTiterGlo, counter-screen for streptokinase expression inhibitor project, dose response (AID 1915); assay type: functional, organism-based;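 note: potency for reduction of bacterial viability or growth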
Cytochrome P450 2D6 = Cytochrome P450 2D6 (Homo sapiens, UniProt P10635);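 note: CYP2D6 member of a cytochrome P450 panel assay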
Sequence of Cytochrome P450 2D6 (P10635 whole entry): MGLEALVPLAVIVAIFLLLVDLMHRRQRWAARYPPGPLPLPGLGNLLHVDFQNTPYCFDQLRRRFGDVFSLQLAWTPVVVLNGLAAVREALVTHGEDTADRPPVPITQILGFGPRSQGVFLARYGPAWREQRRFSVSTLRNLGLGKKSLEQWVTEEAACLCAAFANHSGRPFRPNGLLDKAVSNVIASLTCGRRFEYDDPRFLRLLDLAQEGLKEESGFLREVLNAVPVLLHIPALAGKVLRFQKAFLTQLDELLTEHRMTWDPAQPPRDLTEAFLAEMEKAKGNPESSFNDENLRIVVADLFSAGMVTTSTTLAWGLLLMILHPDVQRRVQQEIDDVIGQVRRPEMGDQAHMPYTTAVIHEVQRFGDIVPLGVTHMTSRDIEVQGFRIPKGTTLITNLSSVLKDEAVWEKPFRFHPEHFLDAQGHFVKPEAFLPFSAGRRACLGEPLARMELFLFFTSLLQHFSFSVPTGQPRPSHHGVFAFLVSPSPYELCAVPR

Streptokinase A = target: T3, Streptokinase A (Streptococcus pyogenes serotype M1, UniProt P10520); assay: viability-normalized secreted streptokinase activity reduction – plasminogen activation absorbance, OD405, dose response (AID 1914); assay type: functional, Streptococcus pyogenes M1 GAS;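 note: secreted streptokinase activity via plasminogen activation per viability signal from cell pellet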
T3 sequence (P10520 whole entry): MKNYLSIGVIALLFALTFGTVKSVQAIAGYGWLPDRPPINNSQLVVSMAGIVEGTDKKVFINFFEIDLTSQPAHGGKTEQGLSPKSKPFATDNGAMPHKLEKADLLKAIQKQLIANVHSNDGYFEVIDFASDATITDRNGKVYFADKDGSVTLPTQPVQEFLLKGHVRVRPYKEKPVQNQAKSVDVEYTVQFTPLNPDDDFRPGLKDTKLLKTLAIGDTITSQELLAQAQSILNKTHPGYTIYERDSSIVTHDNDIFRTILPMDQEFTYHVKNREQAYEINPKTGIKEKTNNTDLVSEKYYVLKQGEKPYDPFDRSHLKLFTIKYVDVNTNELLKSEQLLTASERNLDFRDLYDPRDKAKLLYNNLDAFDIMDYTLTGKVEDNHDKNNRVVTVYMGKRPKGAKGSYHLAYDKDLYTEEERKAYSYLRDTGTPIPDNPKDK

[8] = target: FAD-linked sulfhydryl oxidase ALR (Homo sapiens, UniProt P55789); assay: ALR-catalysed DTT oxidation blockers – biochemical, H2O2 detection, luminescence, cherry-pick, dose response (AID 493248)
Sequence of FAD-linked sulfhydryl oxidase ALR (P55789 whole entry): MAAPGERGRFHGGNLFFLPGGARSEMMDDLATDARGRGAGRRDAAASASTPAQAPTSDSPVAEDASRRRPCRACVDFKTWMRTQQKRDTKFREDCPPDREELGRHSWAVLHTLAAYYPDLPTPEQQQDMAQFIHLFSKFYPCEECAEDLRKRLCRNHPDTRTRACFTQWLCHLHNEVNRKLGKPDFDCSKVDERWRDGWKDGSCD

[9] = target: T4, Rac GTPase-activating protein 1 (Homo sapiens, UniProt Q9H0H5); assay: blockers of MgcRacGAP-driven Rac1 GTP hydrolysis – biochemical, ADP Hunter fluorescence, primary and confirmatory, confirmation (AID 624330); assay type: functional
T4 sequence (Q9H0H5 whole entry): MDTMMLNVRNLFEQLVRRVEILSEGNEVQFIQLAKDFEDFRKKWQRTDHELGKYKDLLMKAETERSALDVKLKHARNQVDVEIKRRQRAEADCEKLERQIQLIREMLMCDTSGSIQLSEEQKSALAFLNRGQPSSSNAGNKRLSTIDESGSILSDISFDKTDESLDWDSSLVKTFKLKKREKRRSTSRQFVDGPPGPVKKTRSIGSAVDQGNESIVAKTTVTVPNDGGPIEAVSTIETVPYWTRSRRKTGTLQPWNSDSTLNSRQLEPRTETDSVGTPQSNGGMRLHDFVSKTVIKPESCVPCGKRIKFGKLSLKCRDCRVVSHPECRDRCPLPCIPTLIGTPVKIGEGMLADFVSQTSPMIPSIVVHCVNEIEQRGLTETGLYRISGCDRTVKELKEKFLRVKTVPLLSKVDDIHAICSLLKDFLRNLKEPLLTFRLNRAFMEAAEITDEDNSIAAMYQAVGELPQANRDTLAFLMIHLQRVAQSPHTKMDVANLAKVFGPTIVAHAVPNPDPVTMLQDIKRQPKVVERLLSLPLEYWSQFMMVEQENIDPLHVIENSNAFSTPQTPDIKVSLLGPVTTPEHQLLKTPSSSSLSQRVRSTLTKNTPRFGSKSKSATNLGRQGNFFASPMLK

Clc1ccc(CN(Cc2ccccc2)C(c2cccs2)c2nnnn2C2CCCC2)cc1 (stereo unspecified)
EC50 [1]: 53.2 µM (active)
EC50 [2]: 32.8 µM (active)

COc1ccc(C(=O)/C=C(/C)N(C)C)cc1
AC50 (Cytochrome P450 2C19): 11.2 µM (inconclusive)
AC50 (Cytochrome P450 3A4): 5.01 µM (inconclusive)

O=C(CSc1nnc(-c2ccc3c(c2)OCO3)o1)Nc1ncc(Cl)cc1Cl
EC50 [1]: 11.4 µM (active)
EC50 [2]: 9.18 µM (active)

CCOc1ccc(OCc2cccc(C(=O)Nc3ccc(CN4CCCCC4)cc3)c2)cc1
AC50 [3]: 5.46 µM (active)

COc1ccc(C(C(=O)NC2CCCCC2)N(C(=O)CCCC(=O)Nc2ccccn2)c2ccc3c(c2)OCCO3)cc1 (stereo unspecified)
AC50 (Cytochrome P450 2C19): 7.94 µM (inconclusive)
AC50 (Cytochrome P450 2C9): 14.1 µM (inconclusive)

Cc1ccc2oc(=O)c(/C=C(\O)c3sc(C)nc3C)nc2c1
EC50 [4]: 7.67 µM (active)

CN1CCN(c2ncnc3ccc(-c4cccc(C#N)c4)cc23)CC1
AC50 (Cytochrome P450 3A4): 25.1 µM (inconclusive)

Cn1c(N)c(C(=O)CSc2ccc3c(c2)OCCO3)c(=O)n(C)c1=O
AC50 (Cytochrome P450 2C9): 39.8 µM (inconclusive)

C=CCc1cccc(CNc2nc3ccccc3n2CCC)c1O
AC50 [3]: 7.58 µM (active)

O=C1N/C(=C\c2ccc(N3CCOCC3)c(F)c2)C(=O)N1Cc1ccccc1
AC50 (Cytochrome P450 1A2): 2 µM (inconclusive)
AC50 (Cytochrome P450 3A4): 0.794 µM (inconclusive)

COc1cc2c(c(OC)c1OC)-c1ccc(O)c(=O)cc1[C@H](N)CC2
AC50 (Cytochrome P450 3A4): 3.16 µM (inconclusive)

CC1CN(CCCCOc2cccc(Oc3ccccc3)c2)CC(C)O1 (stereo unspecified)
EC50 [5]: 1.01 µM (active)
EC50 [6]: > 60 µM (inconclusive)
AC50 [3]: 13.3 µM (active)

CN(C)C(=O)c1ccc(-c2cncnc2Nc2ccccc2)cc1
AC50 (Cytochrome P450 1A2): 31.6 µM (inconclusive)
AC50 (Cytochrome P450 3A4): 5.01 µM (inconclusive)

COC(=O)c1sccc1NC(=O)c1cc(-c2cccc(C)c2)nc2ccccc12
EC50 [1]: 6.74 µM (active)
EC50 [2]: 8.24 µM (active)

C[C@H](C(=O)c1ccncc1)c1ccccn1
AC50 (Cytochrome P450 3A4): 3.98 µM (inconclusive)

CCc1cc2ccc(C)cc2nc1SCC(=O)c1ccc(NC(C)=O)cc1
AC50 [3]: 3.68 µM (active)

CC/C(=C\C1CCCCC1)C(NP(=O)(c1ccccc1)c1ccccc1)c1ccccc1 (stereo unspecified)
EC50 [7]: 1.68 µM (active)
EC50 (Streptococcus): 2.26 µM (active)
AC50 [3]: 2.58 µM (active)

Cn1c(C(=O)NCCCN2CCN(c3ccccc3F)CC2)cc2c(=O)n(C)c3ccccc3c21
EC50 [1]: 17.2 µM (active)
EC50 [2]: 17.7 µM (active)

Brc1ccccc1OCCOCCOc1cccc2cccnc12
AC50 (Cytochrome P450 2C19): 3.16 µM (inconclusive)
AC50 (Cytochrome P450 3A4): 39.8 µM (inconclusive)
AC50 (Cytochrome P450 2C9): 11.2 µM (inconclusive)

CCCSc1nc(SCC(=O)NCc2ccccc2)c2c3c(sc2n1)COC(C)(CC)C3 (stereo unspecified)
AC50 (Cytochrome P450 3A4): 7.08 µM (inconclusive)

COc1cccc(-c2cc(C(F)(F)F)nc(N3CCN(c4ccccc4)CC3)n2)c1
AC50 (Cytochrome P450 2C9): 0.631 µM (inconclusive)

CC(=O)N1CCC2(CCCN(Cc3nccs3)C2)CC1
AC50 (Cytochrome P450 2D6): 15.8 µM (inconclusive)
AC50 (Cytochrome P450 3A4): 39.8 µM (inconclusive)

CCc1cc2c(SCC(=O)Nc3ccc(Cl)cn3)ncnc2s1
EC50 [1]: 31.9 µM (active)
EC50 [2]: 71.3 µM (active)

CCCn1c(=O)c(C(=O)NNC(=O)c2ccc(Cl)cc2Cl)c(O)c2ccccc21
EC50 [4]: 4.01 µM (active)

COc1ccc(CNc2ccnc(-c3c(C)noc3C)n2)c(OC)c1
AC50 (Cytochrome P450 2D6): 39.8 µM (inconclusive)
AC50 (Cytochrome P450 2C9): 1 µM (inconclusive)

CCc1ccc2c(c1)[C@H]1OCC[C@H]1[C@@H](c1cccs1)N2
AC50 [3]: 2.97 µM (active)

CC1(C)CC(=O)C(C2C3=C(CC(C)(C)CC3=O)Oc3c(Br)cc(Br)cc32)=C(O)C1 (stereo unspecified)
EC50 [7]: 4.66 µM (active)
EC50 (Streptokinase A): 24.8 µM (active)
EC50 (Streptococcus): 12.2 µM (active)
EC50 [4]: 10.3 µM (active)

Cc1ccc(C)c2sc(NC(=O)c3ccc(N4C(=O)CCC4=O)cc3)nc12
EC50 [4]: > 53 µM (inactive)

CCOC(=O)/C(=C/C=C1\Sc2ccccc2N1CC)C(C)=O
EC50 [4]: 11.5 µM (active)

Cc1ccc(N2CC(C(=O)Nc3cc(C)on3)CC2=O)cc1 (stereo unspecified)
AC50 (Cytochrome P450 3A4): 22.4 µM (inconclusive)
AC50 (Cytochrome P450 2C9): 11.2 µM (inconclusive)

COC(=O)c1sccc1-c1ccc(C(=O)Nc2cccc(Cl)c2)o1
AC50 (Cytochrome P450 3A4): 28.2 µM (inconclusive)

COc1ccc(CSC2=C(C#N)C(=O)NC3(CCCCC3)S2)cc1
AC50 (Cytochrome P450 2C9): 3.16 µM (inconclusive)

O=C(NCCc1ccccc1)c1cc(-c2ccccc2)c(N2CCOCC2)s1
AC50 [3]: 3.48 µM (active)

Cc1ccc(CSc2nnc(-c3ccncc3)n2CC2CCCO2)cc1 (stereo unspecified)
AC50 (Cytochrome P450 3A4): 1.41 µM (inconclusive)

COc1ccc(CCNC(=O)CCN2C(=O)COc3ccc(C)cc32)cc1OC
AC50 (Cytochrome P450 2D6): 39.8 µM (inconclusive)
AC50 (Cytochrome P450 2C9): 28.2 µM (inconclusive)

C/C(=N\Nc1nc2ccccc2[nH]1)c1cccs1
AC50 [8]: 0.02 µM (active)
IC50 [9]: 26.8 µM (active)

CC(C)C[C@H](NC(=O)N1CCCCCC1)C(=O)N[C@H](Cc1cn(C)c2ccccc12)C(=O)N[C@H](Cc1ccccn1)C(=O)O
AC50 (Cytochrome P450 1A2): 39.8 µM (inconclusive)
AC50 (Cytochrome P450 3A4): 15.8 µM (inconclusive)

COc1ccc(CNc2ncnc3ccc(-c4cccc(C#N)c4)cc23)c(OC)c1
AC50 (Cytochrome P450 2C9): 0.0158 µM (inconclusive)

Cc1ccc(NC(=O)c2cc([N+](=O)[O-])ccc2NCc2cccnc2)cc1Cl
EC50 [5]: 1.82 µM (active)
EC50 [6]: > 60 µM (not active)
AC50 (Cytochrome P450 2D6): 0.794 µM (inconclusive)
AC50 (Cytochrome P450 2C9): 0.251 µM (inconclusive)

Source: ChEMBL document CHEMBL1201862, “PubChem BioAssay data set” (2004)
